{"source": "patent US8247170B2", "about": "“Detection of penicillin tolerance in Group B Streptococcus: single nucleotide polymorphisms in penicillin binding protein 4” (priority 2008, dated 2012)", "test_system": "GBS laboratory strains and clinical isolates", "experiment": "Microbroth (96-well) penicillin tolerance assay", "assay_type": "cell-based, Group B Streptococcus", "settings": "for Penicillin Phenotypes: 48 hr penicillin, 24 hr drug free culture; for replication or viability after re-plate and additional 24-hour culture (FIG. 1): penicillin G 1× to 256×MIC90 48 hours", "description": "An in vitro method involving microbroth (96-well) culture was used to develop a penicillin tolerance assay. In this assay, the inventors tested three laboratory bacterial strains (i.e., GBS strains A909, NEM316, and O90R). These cells were commercially obtained from ATCC source. Bacterial cells were cultured overnight for 18 hours at 37° C. in Todd-Hewitt Broth (THB). Subcultures in THB were subsequently grown to exponential phase (OD600˜0.3) at 37° C. Cell cultures were then exposed to different concentrations of penicillin G (Sigma, St. Louis, Mo.). […] Cell cultures were dispersed. A dilution (i.e., 1 to 20) of cells was re-plated into new wells containing fresh THB with 500 U Penase (to destroy residual penicillin). Cell cultures were allowed to grow for an additional 24 hours at 37° C. Assays were repeated four (4) times and standard bar represents standard deviations.\nUsing this established 96-well assay (i.e., microbroth assay), 115 clinical isolates of GBS were further tested. These were cervico-vaginal rectal clinical isolates (obtained from pregnant humans), and characterized their penicillin tolerance. The phenotype definitions (above) were used to identify the penicillin tolerant isolates.\n(I) Bacterial Strains and Culture Conditions. GBS strains A909 (serotype IA), 515 (serotype IA), NEM316 (serotype III), COHI (serotype III), 2603V/R (serotype V) and O90R (non-typable) were used in this study. E. coli Top10 cells were used for the recombination experiments. GBS was cultured in Todd Hewitt broth (THB) or Tryptic Soy 5% sheep blood (TS) media and E. coli in Luria-broth (LB) medium or agar. Antibiotics were used at the following concentrations: for GBS—penicillin G (MIC90 0.06 μg ml^−1), ampicillin (MIC90 0.12 μg ml^−1), vancomycin (MIC90 2 μg ml^−1), cefazolin (MIC90 1 μg ml^−1) and chloramphenicol (5 μg ml^−1); for E. coli—ampicillin (50 μg ml^−1) and chloramphenicol (5 μg ml^−1). Both GBS and E. coli cultures were grown at 37° C. (II) Tolerance Using the MBC:MIC Ratio Method. Three GBS laboratory strains (i.e., A909, NEM316, and O90R) were cultured overnight for 18 h at 37° C. in THB. Subcultures in THB were subsequently grown to exponential phase (OD600˜0.3; i.e. 5×10^5 cfu/ml) at 37° C. Cell cultures were then exposed to different concentrations of antibiotics (Penicillin G, Ampicillin, Cefozolin or Vancomycin). […] Cell cultures were dispersed every 18 h before OD600 was measured to determine the lowest concentration of antibiotic with 90% growth inhibition (MIC90). Antibiotic treated cells (8 μl) from each well were re-suspended into PBS (100 μl) and plated (54 μl) on TS agar plates and allowed to grow for an additional 24 h at 37° C. Cell count was performed to determine the lowest concentration of antibiotic with 90% killing of original inoculums (MBC90). (III) Penicillin Killing and Regrowth Tolerance Assay by Microbroth Dilution. Three GBS laboratory strains (i.e., A909, NEM316, and O90R) were cultured overnight for 18 h at 37° C. in THB. Subcultures in THB were subsequently grown to exponential phase (OD600˜0.3) at 37° C. Cell cultures were then exposed to different concentrations of Penicillin G (Sigma, St. Louis, Mo.). […] Cell cultures were dispersed. A 1:20 dilution of cells was re-plated into new wells containing fresh THB with 500 U Penase (to degrade residual penicillin). Cell cultures were allowed to re-grow for an additional 24 h at 37° C. before the OD600 was measured. (IV) Measuring Cell Viability by Determining ATP Concentration. GBS strains were cultured for 18 h at 37° C. in THB. These cells were inoculated into fresh THB and subsequently allowed to grow to exponential phase (OD600 0.25-0.3) at 37° C. One ml of each culture was centrifuged at 5,000×g for 4 min. The cell pellet was re-suspended in ATP-free water. Cellular ATP was extracted using trichloroacetic acid (TCA) (5%) for 2 min and subsequently neutralized with Tris-EDTA-0.1M NaOAc, pH 7.75 to 10×TCA volume. […]", "data": [{"smiles": "CC1(C)S[C@@H]2[C@H](NC(=O)Cc3ccccc3)C(=O)N2[C@H]1C(=O)O", "note": "[Penicillin G]", "values": [{"measurement": "% GBS Clinical Strains, Intermediate", "setting": "115 clinical isolates", "value": 8, "unit": "%"}, {"measurement": "% GBS Clinical Strains, Paradoxical Effect-Penicillin Tolerance (PE-PT)", "setting": "115 clinical isolates", "value": 27, "unit": "%"}, {"measurement": "% GBS Clinical Strains, Penicillin Tolerance (PT)", "setting": "115 clinical isolates", "value": 16, "unit": "%"}, {"measurement": "% GBS Clinical Strains, Susceptible (S)", "setting": "115 clinical isolates", "value": 49, "unit": "%"}, {"measurement": "Penicillin Phenotypes", "setting": "GBS laboratory strain A909", "value": "Susceptible (S)"}, {"measurement": "Penicillin Phenotypes", "setting": "GBS laboratory strain NEM316", "value": "Paradoxical Effect-Penicillin Tolerance (PE-PT)"}, {"measurement": "Penicillin Phenotypes", "setting": "GBS laboratory strain O90R", "value": "Penicillin Tolerance (PT)"}, {"measurement": "replication or viability after re-plate and additional 24-hour culture (FIG. 1)", "setting": "GBS strain A909", "value": "did not replicate"}, {"measurement": "replication or viability after re-plate and additional 24-hour culture (FIG. 1)", "setting": "GBS strain NEM316, viability lost at 16× to 64×MIC90", "value": "paradoxical effect"}, {"measurement": "replication or viability after re-plate and additional 24-hour culture (FIG. 1)", "setting": "GBS strain O90R", "value": "did not inhibit the replication or viability"}]}]}
